Data: ChEMBL document CHEMBL4680318, “(S)-Erypoegin K, an isoflavone isolated from Erythrina poeppigiana, is a novel inhibitor of topoisomerase IIα: Induction of G2 phase arrest in human gastric cancer cells” (Bioorg Med Chem, 2021)
pIC50: −log10 of the molar value. Active and inactive are the calls of the source. The rule behind the calls is not given here.

Legend:
[1] = test system: RXF 631; assay: Growth inhibition of human RXF 631 cells measured after 48 hrs by sulforhodamine B assay; format: functional
[2] = test system: MKN-1; assay: Cell cycle arrest in human MKN-1 cells assessed as accumulation at S phase at 0.1 uM measured after 24 hrs by propidium iodide staining based Muse cell analyzer (reference value: 15.5 +/- 0.2 %); format: functional
[3] = test system: HT-29; assay: Growth inhibition of human HT-29 cells measured after 48 hrs by sulforhodamine B assay; format: functional
[4] = test system: OVCAR-8; assay: Growth inhibition of human OVCAR-8 cells measured after 48 hrs by sulforhodamine B assay; format: functional
[5] = test system: GCIY; assay: Induction of apoptosis in human GCIY cells assessed as activation of caspase 9 measured after 5 to 35 hrs by fluorescence assay; format: functional, cell-based; conditions: dose 1-10 µM, time 5-35 hrs
[6] = test system: DMS-273; assay: Growth inhibition of human DMS-273 cells measured after 48 hrs by sulforhodamine B assay; format: functional
[7] = test system: MKN-1; assay: Induction of apoptosis in human MKN-1 cells assessed as activation of caspase 3 measured after 5 to 35 hrs by fluorescence assay; format: functional, cell-based; conditions: dose 1-10 µM, time 5-35 hrs
[8] = test system: NCI-H226; assay: Growth inhibition of human NCI-H226 cells measured after 48 hrs by sulforhodamine B assay; format: functional
[9] = test system: SK-OV-3; assay: Growth inhibition of human SK-OV-3 cells measured after 48 hrs by sulforhodamine B assay; format: functional
[10] = test system: MKN-1; assay: Growth inhibition of human MKN-1 cells measured after 48 hrs by sulforhodamine B assay; format: functional
[11] = test system: MCF7; assay: Growth inhibition of human MCF7 cells measured after 48 hrs by sulforhodamine B assay; format: functional
[12] = test system: MKN-1; assay: Cytotoxicity against human MKN-1 cells assessed as reduction in cell viability measured after 48 hrs by MTS/CellTiter96 aqueous one solution cell proliferation assay; format: functional, cell-based; conditions: MKN-1, 48 h
[13] = test system: MDA-MB-231; assay: Growth inhibition of human MDA-MB-231 cells measured after 48 hrs by sulforhodamine B assay; format: functional
[14] = test system: GCIY; assay: Cell cycle arrest in human GCIY cells assessed as accumulation at S phase at 0.1 uM measured after 24 hrs by propidium iodide staining based Muse cell analyzer (reference value: 25.7 +/- 0.7 %); format: functional
[15] = test system: U-251; assay: Growth inhibition of human U-251 cells measured after 48 hrs by sulforhodamine B assay; format: functional
[16] = test system: MKN-1; assay: Cell cycle arrest in human MKN-1 cells assessed as accumulation at G0/G1 phase at 0.1 uM measured after 24 hrs by propidium iodide staining based Muse cell analyzer (reference value: 49.6 +/- 2.6 %); format: functional
[17] = biological target: DNA topoisomerase 2-alpha (Homo sapiens) (UniProt P11388); assay: Inhibition of human DNA topoisomerase 2alpha assessed as stabilization of DNA cleavage complex at 50 to 200 uM using supercoiled pSL1180 plasmid DNA as substrate measured after 30 mins by ethidium bromide staining-based UV imaging analysis; conditions: dose 50-200 µM
DNA topoisomerase 2-alpha (Homo sapiens), sequence (P11388 whole entry): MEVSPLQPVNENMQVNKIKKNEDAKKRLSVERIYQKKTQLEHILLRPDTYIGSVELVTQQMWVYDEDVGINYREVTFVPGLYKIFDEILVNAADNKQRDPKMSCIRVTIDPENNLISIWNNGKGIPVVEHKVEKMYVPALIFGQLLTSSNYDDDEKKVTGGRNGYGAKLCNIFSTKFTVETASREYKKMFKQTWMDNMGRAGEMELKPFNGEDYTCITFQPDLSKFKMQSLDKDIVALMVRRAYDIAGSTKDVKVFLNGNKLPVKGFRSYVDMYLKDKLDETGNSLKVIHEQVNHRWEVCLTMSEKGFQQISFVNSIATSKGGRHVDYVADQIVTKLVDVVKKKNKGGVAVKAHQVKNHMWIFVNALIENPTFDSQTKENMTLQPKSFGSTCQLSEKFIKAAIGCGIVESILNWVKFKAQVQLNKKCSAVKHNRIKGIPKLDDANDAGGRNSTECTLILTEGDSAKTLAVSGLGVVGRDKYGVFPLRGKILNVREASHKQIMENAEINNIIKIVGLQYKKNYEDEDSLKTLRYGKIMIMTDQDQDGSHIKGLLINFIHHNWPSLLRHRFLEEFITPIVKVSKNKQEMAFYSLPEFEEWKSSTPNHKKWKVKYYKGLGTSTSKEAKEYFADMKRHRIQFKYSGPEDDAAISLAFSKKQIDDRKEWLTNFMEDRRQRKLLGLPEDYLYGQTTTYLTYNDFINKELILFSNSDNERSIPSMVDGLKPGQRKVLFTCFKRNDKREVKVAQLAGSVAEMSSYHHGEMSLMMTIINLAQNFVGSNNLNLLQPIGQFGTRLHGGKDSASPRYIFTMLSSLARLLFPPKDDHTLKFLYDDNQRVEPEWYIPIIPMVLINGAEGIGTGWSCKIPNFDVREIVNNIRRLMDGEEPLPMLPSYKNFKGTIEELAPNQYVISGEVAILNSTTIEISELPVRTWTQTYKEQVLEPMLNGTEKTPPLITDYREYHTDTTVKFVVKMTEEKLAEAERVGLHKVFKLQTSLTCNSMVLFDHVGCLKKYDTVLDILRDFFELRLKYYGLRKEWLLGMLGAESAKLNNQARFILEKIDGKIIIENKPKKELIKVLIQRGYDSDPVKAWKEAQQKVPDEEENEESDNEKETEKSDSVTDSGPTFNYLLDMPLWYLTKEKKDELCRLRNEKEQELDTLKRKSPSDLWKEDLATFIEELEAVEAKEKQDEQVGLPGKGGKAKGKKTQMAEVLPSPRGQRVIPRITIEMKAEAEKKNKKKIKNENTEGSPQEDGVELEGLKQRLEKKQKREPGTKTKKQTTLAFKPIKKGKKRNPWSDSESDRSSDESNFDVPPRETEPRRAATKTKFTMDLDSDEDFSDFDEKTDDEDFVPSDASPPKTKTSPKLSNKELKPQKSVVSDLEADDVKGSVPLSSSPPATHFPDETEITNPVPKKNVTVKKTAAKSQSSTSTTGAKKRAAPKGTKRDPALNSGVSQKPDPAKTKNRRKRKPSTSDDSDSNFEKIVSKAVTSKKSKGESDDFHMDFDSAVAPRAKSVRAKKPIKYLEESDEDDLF

[18] = test system: MKN-1; assay: Induction of apoptosis in human MKN-1 cells assessed as activation of caspase 9 measured after 5 to 35 hrs by fluorescence assay; format: functional, cell-based; conditions: dose 1-10 µM, time 5-35 hrs
[19] = test system: MKN-1; assay: Cell cycle arrest in human MKN-1 cells assessed as accumulation at G2/M phase at 0.3 uM measured after 24 hrs by propidium iodide staining based Muse cell analyzer (reference value: 33.2 +/- 0.5 %); format: functional

- GI50 [3]: 10500 nM
- GI50 [4]: 417 nM
- GI50 [8]: 295 nM
- GI50 [9]: 427 nM
- GI50 [10]: 295 nM
- GI50 [11]: 138 nM
- GI50 [13]: 1740 nM
- GI50 [15]: 331 nM
- inhibition [17]: Active
Compound: CC(C)(O)[C@@H]1Cc2c(cc(O)c3c(=O)c(-c4ccc(O)cc4)coc23)O1
- GI50 [1]: 5010 nM
- Activity [2]: 12.3%
- Activity [5]: Dose-dependent effect
- GI50 [6]: 195 nM
- Activity [7]: Dose-dependent effect
- pIC50 [12]: 6.49
- Activity [14]: 22.4%
- Activity [16]: 24.9%
- Activity [18]: Dose-dependent effect
- Activity [19]: 83.6%
